Consider two compounds from patent publication US11174243B2, “Succinate forms and compositions of Bruton's tyrosine kinase inhibitors” (Sunesis Pharmaceuticals, Inc., priority 2016, dated 2021).

The structures appear in SMILES notation.

A short description of series [1]: Phase 1a study Stage 2: food effect on pharmacokinetics. Particulars: 200 mg oral. The class given is in vivo, human. The protocol:
In Stage 2, the effects of food on the pharmacokinetics of Compound 2 were assessed. In this stage, 12 newly enrolled subjects (6 males, 6 females; Cohort 6) were administered Compound 2 on two separate occasions, either in a fasting or fed state, with a period of ≥72 hours between the two doses. The Compound 2 dose level was 200 mg. The 12 subjects were randomized such that 6 subjects (3 males, 3 females) received Compound 2 after an overnight fast, and 6 subjects (3 males, 3 females) received Compound 2 after ingestion of a standardized, high-fat meal. Approximately 4 days later, the subjects were crossed over so that those who received Compound 2 without food in the first period then received the drug with food, while those who received Compound 2 with food in the first period then received the drug without food.
The effects of food on the pharmacokinetics of Compound 2 were assessed after oral administration of 200 mg Compound 2 to 12 subjects in the fed and fasted states. The absorption rate of Compound 2 in fed state was decreased, with Tmax delayed by 2 hours and Cmax decreased by about 30%; however, there was no impact on the extent of absorption (AUC) and elimination (T½) of Compound 2.

The target of another series is T1, CYP3A4 (Homo sapiens, UniProt P08684).
T1 construct: from tissue; host or cells: human subjects in vivo
The experiment in a line: Phase 1a study Stage 3: drug-drug interaction with itraconazole (effect of CYP3A4 inhibition). The class given is in vivo. Particulars: for Cmax / AUC(0-t) / AUC(0-inf) / Tmax: plasma, oral; for Cmax / AUC(0-t) / AUC(0-inf): arithmetic mean (CV %); for Tmax: median (min, max). The protocol: Stage 3 evaluated 12 subjects from Cohort 6 who had already received Compound 2 in Stage 2 of the study. Compound 2 at a dose of 25 mg was administered once in the fasted state on Day 1 and subjects were followed for safety, PK and PD evaluations. On Day 4, subjects then received itraconazole (a potent CYP3A4 inhibitor) that was administered at a dose of 200 mg twice daily on Days 4 through 9 in the fed state (except at the morning dose on Day 7). In the morning of Day 7, subjects received itraconazole at a dose of 200 mg followed shortly by administration of Compound 2 at a dose of 25 mg (with both drugs given in the fasted state). Subjects were then followed for safety, PK and PD evaluations on Days 7, 8, 9, and 10. PK results observed following administration of Compound 2 alone on Day 1 were compared with those observed in these same subjects after administration of Compound 2 with itraconazole on Day 7.
The effect of the strong CYP3A4 inhibitor, itraconazole, on the pharmacokinetics of an oral dose of 25 mg Compound 2 was evaluated in 12 subjects (Table 7a). […].

The nature of the next series: Single-dose PK in rat. It is filed as in vivo, male Sprague Dawley rats. Particulars: male, Sprague Dawley, plasma. The protocol:
A series of single-dose PK studies were conducted in rat, dog, and monkey to investigate the plasma PK of Compound 2 following single oral and single intravenous (IV) administration of Compound 2.
The PK profile of Compound 2 was evaluated in male Sprague Dawley rats (n=3) following single IV administration of Compound 2 at 1 mg/kg and single oral administration at 5 mg/kg. Following each administration serial blood samples were collected at 0 (predose), 0.08, 0.25, 0.5, 0.75, 2, 5, 10, and 24 hours postdose.

The next series relates to CD40 expression. The experiment in a line: CpG induced CD40 expression (flow cytometry). The class given is cell-based, human. Particulars: 3.2 μM CpG stimulation, 1 μM. The protocol:
Methods: Primary CLL B cells were isolated from the whole blood of consented patients by FICOLL density centrifugation and rosette-sep negative selection. Annexin V and propidium iodide flow cytometry was used to measure patient CLL cell viability and 7AAD was used to measure viability in stromal co-culture. CD40 and CD86 expression was evaluated via flow cytometry subsequent to sustained 3.2 μM CpG stimulation. BCR signaling in primary CLL cells was investigated by immunoblot succeeding 1 hour treatment and following 1 hour or 24 hours of incubation with Compound 1 in XLA cell lines. MTS values were read after 24 hours of drug incubation. ITK inhibition was investigated via immunoblot after stimulation with anti-CD3 and anti-CD28 and incubation with Compound 1 for 1 hour. Compound 1 was used at a concentration of 1 μM in preclinical studies unless otherwise noted.

A further series addresses T2, BMX (Homo sapiens, UniProt P51813).
T2 sequence (P51813 1-675): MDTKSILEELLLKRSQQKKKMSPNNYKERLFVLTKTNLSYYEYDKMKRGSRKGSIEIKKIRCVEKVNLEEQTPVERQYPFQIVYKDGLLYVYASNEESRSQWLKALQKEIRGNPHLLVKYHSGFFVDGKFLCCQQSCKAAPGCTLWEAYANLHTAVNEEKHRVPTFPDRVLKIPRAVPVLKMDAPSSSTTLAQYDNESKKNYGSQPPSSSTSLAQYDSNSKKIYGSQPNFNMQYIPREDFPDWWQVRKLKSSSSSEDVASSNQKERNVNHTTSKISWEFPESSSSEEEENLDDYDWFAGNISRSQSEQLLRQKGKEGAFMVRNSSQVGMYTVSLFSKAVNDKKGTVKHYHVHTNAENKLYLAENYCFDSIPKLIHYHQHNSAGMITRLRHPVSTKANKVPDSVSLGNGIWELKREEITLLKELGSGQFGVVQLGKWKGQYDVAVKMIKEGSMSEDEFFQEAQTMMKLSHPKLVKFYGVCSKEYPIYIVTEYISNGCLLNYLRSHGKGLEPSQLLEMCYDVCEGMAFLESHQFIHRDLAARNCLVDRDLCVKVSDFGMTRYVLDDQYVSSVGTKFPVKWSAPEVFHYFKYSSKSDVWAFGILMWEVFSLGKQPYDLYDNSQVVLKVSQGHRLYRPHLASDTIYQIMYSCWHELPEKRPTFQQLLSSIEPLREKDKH
The experiment in a line: Kinase selectivity, BMX (Kd).

Setting [2] is: human, Compound 2 25 mg fasted + itraconazole.
Setting [3] is: human, Compound 2 25 mg fasted, N = 12.
The mark [4] stands for this setting: 1 mg/kg, IV, dose 1, SPEW, free base measured.
The mark [5] stands for this setting: 5 mg/kg, PO, dose 5, 0.1% CMC/0.2% Tween, free base measured.

T1 sequence (P08684 whole entry): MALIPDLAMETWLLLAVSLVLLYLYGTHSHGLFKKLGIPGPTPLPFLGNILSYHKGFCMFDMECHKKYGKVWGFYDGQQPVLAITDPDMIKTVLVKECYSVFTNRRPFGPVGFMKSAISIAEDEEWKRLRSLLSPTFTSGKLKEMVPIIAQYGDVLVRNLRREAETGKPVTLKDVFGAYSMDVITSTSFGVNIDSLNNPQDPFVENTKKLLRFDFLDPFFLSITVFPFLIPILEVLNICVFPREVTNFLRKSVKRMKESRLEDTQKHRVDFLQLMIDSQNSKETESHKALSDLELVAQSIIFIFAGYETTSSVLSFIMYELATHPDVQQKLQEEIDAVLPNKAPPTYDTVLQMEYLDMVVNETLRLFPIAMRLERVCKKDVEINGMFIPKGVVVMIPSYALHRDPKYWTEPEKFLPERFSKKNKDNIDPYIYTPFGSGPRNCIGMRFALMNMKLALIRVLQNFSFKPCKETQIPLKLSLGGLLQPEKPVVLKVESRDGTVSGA

On to `NC(=O)[C@H]1CCN(c2ncnc(N)c2F)C[C@@H]1N1CCC[C@@H](Nc2cc(Cl)cc(C(F)(F)F)c2)C1=O` [Compound 2], for which the “apparent total body clearance and volume of distribution, fed vs fasted” value in series [1] was “comparable in both food conditions”. The “impact of food on extent of absorption (AUC) and elimination (T½)” value in series [1] (fed vs fasted) is listed as “no impact”. Besides, the “decrease of Cmax in fed state” value in series [1] (fed vs fasted, 12 subjects) is recorded as “about 30%”. Moreover, the Tmax in series [1] (both sexes, human, plasma, fed vs fasted, 12 subjects, read-out: delay of Tmax in fed state) came to 2 h; at CYP3A4 (setting [2]), 1.5 h; on CYP3A4 (setting [3]), 1 h; in “Single-dose PK in rat” (setting [5]), 2.6 h. In addition, the CL/F on CYP3A4 (human, in vivo, 25 mg) is listed as 6.34 (41.6) L/hr. On CYP3A4 (human, in vivo, 25 mg), the Vd/F came out at 57.5 L. Further, the half-life is 6.9 h on CYP3A4 (human, in vivo, 25 mg) and 4 h in the series “Single-dose PK in rat” (setting [4]). The Cmax at CYP3A4 (human, Compound 2 25 mg fasted + itraconazole, N = 12) amounted to 1.68 µg/mL; on CYP3A4 (setting [3]), 0.873 µg/mL; in the series “Single-dose PK in rat” (setting [5]), 1.78 µg/mL. For the same compound, the AUC(0-t) on CYP3A4 (setting [2]) was determined as 28 µg·h/mL; at CYP3A4 (human, Compound 2 25 mg fasted), 4.42 µg·h/mL. Moreover, the AUC(0-inf) at CYP3A4 (human, Compound 2 25 mg fasted + itraconazole, N = 11) worked out at 32.2 µg·h/mL; at CYP3A4 (human, Compound 2 25 mg fasted), 4.62 µg·h/mL; in “Single-dose PK in rat” (setting [4]), 16.1 µg·h/mL; in “Single-dose PK in rat” (setting [5]), 14.6 µg·h/mL. Further, in the series “Single-dose PK in rat” (setting [4]), the C0 worked out at 4.37 µg/mL. Further, the bioavailability in the series “Single-dose PK in rat” (5 mg/kg, PO, dose 5, 0.1% CMC/0.2% Tween, read-out: % F (oral bioavailability)) stood at 18%.

Consider `NC(=O)[C@H]1CCN(c2ncnc(N)c2F)C[C@@H]1N1CCC[C@@H](Nc2cc(Cl)cc(C(F)(F)F)c2)C1=O` [Compound 1, (3R,3′R,4′S)-1′-(6-amino-5-fluoropyrimidin-4-yl)-3-((3-chloro-5-(trifluoromethyl)phenyl)amino)-2-oxo-[1,3′-bipiperidine]-4′-carboxamide], for which, at CYP3A4 (25 mg Compound 2 + itraconazole vs alone), the “increase of plasma exposure (Cmax) with itraconazole” value is “about 2 fold”. Further, the CYP3A4 substrate classification result on CYP3A4 (≥5-fold increase in exposure in the presence of CYP enzyme inhibition) is on record as “sensitive substrate for CYP3A4”. Further, the “decrease of CpG induced CD40 expression” value in the series with CD40 expression was 8.7%. At BMX, this compound came in with a Kd of at least 0.2 µM.
